# Data from US20130210786A1, “TREATMENT OF L-DOPA, DOPAMINE AGONIST AND/OR DOPAMINE ENHANCER INDUCED DISORDERS” (priority 2010, published 2013).
# Legend:
# MPTP-lesioned macaques [1] = test: On-time (time without bradykinesia) in MPTP-lesioned macaques after L-DOPA challenge; type: in vivo, Macaca fascicularis; details: both groups; L-DOPA challenge 6-40 mg/kg p.o.
# Procedure: Analysis was performed using a two-way ANOVA with group and L-DOPA dose as factors.
# MPTP-lesioned macaques [2] = test: L-DOPA induced dyskinesia (LID) in MPTP-lesioned macaques, monkey dyskinesia rating scale; type: in vivo, Macaca fascicularis; details: group 1 (L-DOPA+vehicle); challenge with L-DOPA 12, 20, 30 or 40 mg/kg p.o.
# Procedure: Ten female cynomolgus monkeys (macaques) (Macaca fascicularis, 3.0-4.5 kg, 4-6 years old) were acclimatised to the experimental setting and procedures for 3 months and baseline behaviour was assessed in all animals. The macaques received MPTP (0.2 mg/kg/day, s.c.) until moderate-marked, stable, parkinsonian symptoms developed.
# Following stabilisation of parkinsonian disability, the macaques were administered L-DOPA (Madopar, 20 mg/kg b.i.d., p.o.) for 19 weeks before being administered L-DOPA+vehicle (hydroxypropylmethylcellulose, HPMC, 0.5% w/v containing Tween 80, 0.2% v/v, group 1, n=5) or L-DOPA+smilagenin (20 mg/kg/day, p.o., group 2, n=5) for a further 18 weeks. Smilagenin was then washed out for 10 weeks and all the macaques received only L-DOPA twice daily over this 10 week period.
# Following the 10 week washout, the macaques were challenged with L-DOPA (6, 12, 20, 30 or 40 mg/kg, p.o.) or vehicle and the level of dyskinesia over the subsequent 6 h period was assessed by a neurologist blinded to treatment using a monkey dyskinesia rating scale. […] Each macaque received a challenge once every 3 days and received every challenge (vehicle and L-DOPA, 6, 12, 20, 30 or 40 mg/kg) in a randomised order over the course of the experiment. On the days between challenges, the macaques received L-DOPA (20 mg/kg, b.i.d., p.o.) as normal.
# The MPTP-lesioned and L-DOPA treated macaques used in this experiment provide an accepted model for L-DOPA-induced dyskinesia.
compound,measurement,setting,value
"N[C@@H](Cc1ccc(O)c(O)c1)C(=O)O [L-DOPA, L-3,4-dihydroxyphenylalanine]",Effect of L-DOPA on amount of on-time,MPTP-lesioned macaques [1],increased the amount of on-time
same,Dyskinesia following challenge with L-DOPA,MPTP-lesioned macaques [2],dose-dependent dyskinesia up to the 30 mg/kg dose
